# Measured values reported in patent publication US12371454B2, “Cyclic peptide compound having Kras inhibitory action” (priority 2019, dated 2025).
# Starred links: 1 amine or outer side, 2 acyl side, 3 side chain; linkers in the order of their positions; H or OH if unused. Positions of bridges follow the written chain, without caps; N, C: chain ends. Non-standard residues stand in square brackets, D forms with d. Residues, ends and D or L forms follow the SMILES beside them. *: point of attachment. hPhe(3-Cl-4-CF3) = N[C@@H](CCc1ccc(C(F)(F)F)c(Cl)c1)C(=O)O; hPhe(3-F,4-CF3) = N[C@@H](CCc1ccc(C(F)(F)F)c(F)c1)C(=O)O; X48 = O=C([C@H](CCc1ccc(S(F)(F)(F)(F)F)cc1)N[*:1])[*:2]; NMePhe(3-CF3) = CN[C@@H](Cc1cccc(C(F)(F)F)c1)C(=O)O; hPhe(4-CF3) = N[C@@H](CCc1ccc(C(F)(F)F)cc1)C(=O)O; Pro(cis-4-Ph) = O=C(O)[C@@H]1C[C@H](c2ccccc2)CN1; 3Oxa8azabicyclo(3.2.1)octane = C1CC2COCC1N2*; NMePhe(3-Cl) = CN[C@@H](Cc1cccc(Cl)c1)C(=O)O; NMePhe(4-Cl) = CN[C@@H](Cc1ccc(Cl)cc1)C(=O)O; X35 = CN([C@@](C)(Cc1ccccc1)C(=O)[*:2])[*:1]; NMePhe(4-Me) = CN[C@@H](Cc1ccc(C)cc1)C(=O)O; NMeGly(cPent) = CN[C@H](C(=O)O)C1CCCC1; Phe(3-I) = N[C@@H](Cc1cccc(I)c1)C(=O)O; NMeY = CN[C@@H](Cc1ccc(O)cc1)C(=O)O; NMeCha = CN[C@@H](CC1CCCCC1)C(=O)O; NMeChg = CN[C@H](C(=O)O)C1CCCCC1; NMeF = CN[C@@H](Cc1ccccc1)C(=O)O; NMeT = CN[C@H](C(=O)O)[C@@H](C)O; d(β3hL) = CC(C)C[C@@H](N)CC(=O)O; N(CH2CH2)2CF2 = FC1(F)CCN(*)CC1; NMeD = CN[C@@H](CC(=O)O)C(=O)O; NMeL = CN[C@@H](CC(C)C)C(=O)O; NMeNva = CCC[C@H](NC)C(=O)O; NMeV = CN[C@H](C(=O)O)C(C)C; d(β3hA) = C[C@@H](N)CC(=O)O; NMeA = CN[C@@H](C)C(=O)O; NMeAib = CNC(C)(C)C(=O)O; Nle = CCCC[C@H](N)C(=O)O; Piperidide = C1CCN(*)CC1; Pyrrolidide = C1CCN(*)C1; Ac5c = NC1(C(=O)O)CCCC1; Aze = O=C(O)[C@@H]1CCN1; NBuGly = CCCCNCC(=O)O; Sar = CNCC(=O)O
# Molecular target: T1, Kras and SOS1 (biotin-tagged human Kras loaded with GDP, His-tagged human SOS1) (Homo sapiens, UniProt P01116, G12D)
# T1 construct: made in house; host or cells: E. coli (stated for Kras only)
# Test: Protein-protein interaction inhibition between Kras and SOS1 (KrasGl2D-SOS PPI) using AlphaScreen
# Assay type: binding
# Details: AlphaScreen; biotin-tagged human Kras loaded with GDP, His-tagged human SOS1; read-out: KRAS G12D-SOS PPI IC50
# Summary of the method: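 Energy transfer from nickel-chelate donor beads bound to His-SOS1 to streptavidin acceptor beads bound to biotin-Kras, expressed in E. coli and loaded with GDP after purification, was monitored. Donors were excited at 680 nm; singlet oxygen reaching acceptors gave emission read at 520-620 nm.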
# T1 sequence (P01116 1-188 isoform P01116-2 G12D): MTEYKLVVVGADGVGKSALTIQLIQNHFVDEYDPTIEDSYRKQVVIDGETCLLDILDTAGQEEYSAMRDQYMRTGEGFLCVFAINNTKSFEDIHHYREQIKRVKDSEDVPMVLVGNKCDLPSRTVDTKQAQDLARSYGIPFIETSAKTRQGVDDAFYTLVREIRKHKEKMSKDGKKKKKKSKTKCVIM
row,SMILES,IC50
1,CC[C@H](C)[C@@H]1NC(=O)[C@H](CC(C)C)N(C)C(=O)C[C@@H](C(=O)N2CCCCC2)N(C)C(=O)[C@H](CC(C)C)NC(=O)C(C)(C)N(C)C(=O)[C@H](Cc2ccccc2)NC(=O)[C@H](Cc2cccc(I)c2)NC(=O)CN(C)C(=O)[C@H](Cc2ccc(C)cc2)N(C)C(=O)[C@@H]2CCN2C(=O)[C@H](C)N(C)C1=O [Compound 1015] ([NMeL]I[NMeA][Aze][NMePhe(4-Me)][Sar][Phe(3-I)]F[NMeAib]L[NMeD]-Piperidide; lactam N-11),18 nM
2,CC[C@H](C)[C@@H]1NC(=O)[C@H](CC(C)C)N(C)C(=O)C[C@@H](C)NC(=O)[C@H](C(C)C)N(C)C(=O)C2(CCCC2)NC(=O)[C@@H]2CCCN2C(=O)[C@H](CCc2ccc(C(F)(F)F)c(Cl)c2)NC(=O)CN(C)C(=O)[C@H](CC2CCCCC2)N(C)C(=O)CN(C)C(=O)[C@@H]2CCN2C1=O [Compound 1020] (cyclo([Ac5c][NMeV][d(β3hA)][NMeL]I[Aze][Sar][NMeCha][Sar][hPhe(3-Cl-4-CF3)]P)),51 nM
3,CC[C@H](C)[C@@H]1NC(=O)[C@H](CC(C)C)N(C)C(=O)C[C@@H](C)NC(=O)[C@H](CC(C)C)N(C)C(=O)C2(CCCC2)NC(=O)[C@@H]2CCCN2C(=O)[C@H](CCc2ccc(S(F)(F)(F)(F)F)cc2)NC(=O)CN(C)C(=O)[C@H](CC2CCCCC2)N(C)C(=O)CN(C)C(=O)CN(C)C1=O [Compound 1021] (cyclo([Ac5c][NMeL][d(β3hA)][NMeL]I[Sar][Sar][NMeCha][Sar][X48]P)),240 nM
4,CCC[C@H]1C(=O)N(C)CC(=O)N[C@@H](CCc2ccc(C(F)(F)F)c(Cl)c2)C(=O)N2CCC[C@H]2C(=O)NC2(CCCC2)C(=O)N(C)[C@@H](C(C)C)C(=O)N(C)[C@H](C(=O)N2CCCCC2)CC(=O)N(C)[C@@H](CC(C)C)C(=O)N[C@@H]([C@@H](C)CC)C(=O)N(C)[C@@H](C)C(=O)N2CC[C@H]2C(=O)N1C [Compound 1027] ([NMeL]I[NMeA][Aze][NMeNva][Sar][hPhe(3-Cl-4-CF3)]P[Ac5c][NMeV][NMeD]-Piperidide; lactam N-11),8.2 nM
5,CC[C@H](C)[C@@H]1NC(=O)[C@H](C)N(C)C(=O)C[C@@H](C)NC(=O)[C@H](CC(C)C)N(C)C(=O)[C@H](Cc2ccccc2)N(C)C(=O)[C@@H]2CCCN2C(=O)[C@H](CCc2ccc(C(F)(F)F)cc2)NC(=O)CN(C)C(=O)[C@H](CC2CCCCC2)N(C)C(=O)CN(C)C(=O)CN(C)C1=O [Compound 1031] (cyclo(I[Sar][Sar][NMeCha][Sar][hPhe(4-CF3)]P[NMeF][NMeL][d(β3hA)][NMeA])),320 nM
6,CC[C@H](C)[C@@H]1NC(=O)[C@H](CC(C)C)N(C)C(=O)C[C@@H](CC(C)C)NC(=O)[C@H](C(C)C)N(C)C(=O)C2(CCCC2)NC(=O)[C@@H]2CCCN2C(=O)[C@H](CCc2ccc(C(F)(F)F)c(Cl)c2)NC(=O)CN(C)C(=O)[C@H](CC2CCCCC2)N(C)C(=O)CN(C)C(=O)CN(C)C1=O [Compound 1032] (cyclo([Ac5c][NMeV][d(β3hL)][NMeL]I[Sar][Sar][NMeCha][Sar][hPhe(3-Cl-4-CF3)]P)),60 nM
7,CCCCN1CC(=O)N(C)[C@@H](CC2CCCCC2)C(=O)N(C)CC(=O)N[C@@H](CCc2ccc(C(F)(F)F)c(Cl)c2)C(=O)N2CCC[C@H]2C(=O)NC2(CCCC2)C(=O)N(C)[C@@H](C(C)C)C(=O)N[C@H](C)CC(=O)N(C)[C@@H](CC(C)C)C(=O)N[C@@H]([C@@H](C)CC)C(=O)N(C)CC1=O [Compound 1033] (cyclo([Ac5c][NMeV][d(β3hA)][NMeL]I[Sar][NBuGly][NMeCha][Sar][hPhe(3-Cl-4-CF3)]P)),360 nM
8,CC[C@H](C)[C@@H]1NC(=O)[C@H](CC(C)C)N(C)C(=O)C[C@@H](C(=O)N2C3CCC2COC3)N(C)C(=O)[C@H](C2CCCC2)N(C)C(=O)C2(CCCC2)NC(=O)[C@H](CC(=O)N2CCC(F)(F)CC2)N(C)C(=O)[C@H](CCc2ccc(C(F)(F)F)c(Cl)c2)NC(=O)CN(C)C(=O)[C@H](CC2CCCCC2)N(C)C(=O)[C@@H]2CCN2C(=O)[C@H](C)N(C)C1=O [Compound 1039] ([NMeL]I[NMeA][Aze][NMeCha][Sar][hPhe(3-Cl-4-CF3)][NMeD](N(CH2CH2)2CF2)[Ac5c][NMeGly(cPent)][NMeD]-{3Oxa8azabicyclo(3.2.1)octane}; lactam N-11),45 nM
9,CC[C@H](C)[C@@H]1NC(=O)[C@H](CC(C)C)N(C)C(=O)C[C@@H](C(=O)N2CCCCC2)N(C)C(=O)[C@H]([C@@H](C)O)N(C)C(=O)C2(CCCC2)NC(=O)[C@@H]2CCCN2C(=O)[C@H](CCc2ccc(C(F)(F)F)c(Cl)c2)NC(=O)CN(C)C(=O)[C@H](CC2CCCCC2)N(C)C(=O)CN(C)C(=O)CN(C)C1=O [Compound 1041] ([NMeL]I[Sar][Sar][NMeCha][Sar][hPhe(3-Cl-4-CF3)]P[Ac5c][NMeT][NMeD]-Piperidide; lactam N-11),1.6 nM
10,CCCC[C@@H]1NC(=O)[C@H](Cc2ccccc2)NC(=O)CN(C)C(=O)[C@H](Cc2ccc(Cl)cc2)N(C)C(=O)CN(C)C(=O)CN(C)C(=O)[C@H]([C@@H](C)CC)NC(=O)[C@H](CC(C)C)N(C)C(=O)C[C@@H](C(=O)N2CCCCC2)N(C)C(=O)[C@H](CC(C)C)NC(=O)C(C)(C)N(C)C1=O [Compound 1043] ([NMeL]I[Sar][Sar][NMePhe(4-Cl)][Sar]F[Nle][NMeAib]L[NMeD]-Piperidide; lactam N-11),60 nM
11,CCCC[C@@H]1NC(=O)[C@H](Cc2cccc(I)c2)NC(=O)CN(C)C(=O)[C@H](Cc2ccc(Cl)cc2)N(C)C(=O)CN(C)C(=O)CN(C)C(=O)[C@H]([C@@H](C)CC)NC(=O)[C@H](CC(C)C)N(C)C(=O)C[C@@H](C(=O)N2CCCCC2)N(C)C(=O)[C@H](CC(C)C)NC(=O)[C@H](Cc2cccc(Cl)c2)N(C)C1=O [Compound 1044] ([NMeL]I[Sar][Sar][NMePhe(4-Cl)][Sar][Phe(3-I)][Nle][NMePhe(3-Cl)]L[NMeD]-Piperidide; lactam N-11),55 nM
12,CC[C@H](C)[C@@H]1NC(=O)[C@H](C)N(C)C(=O)C[C@@H](C(=O)N2CCCC2)NC(=O)[C@H](CC(C)C)N(C)C(=O)[C@H](Cc2ccccc2)N(C)C(=O)[C@@H]2CCCN2C(=O)[C@H](CCc2ccc(C(F)(F)F)cc2)NC(=O)CN(C)C(=O)[C@H](Cc2ccc(Cl)cc2)N(C)C(=O)CN(C)C(=O)CN(C)C1=O [Compound 1048] ([NMeA]I[Sar][Sar][NMePhe(4-Cl)][Sar][hPhe(4-CF3)]P[NMeF][NMeL]D-Pyrrolidide; lactam N-11),18 nM
13,CC[C@H](C)[C@@H]1NC(=O)[C@H](CC(C)C)N(C)C(=O)C[C@@H](C)NC(=O)[C@H](C(C)C)N(C)C(=O)C2(CCCC2)NC(=O)[C@@H]2CCCN2C(=O)[C@H](CCc2ccc(C(F)(F)F)c(Cl)c2)NC(=O)CN(C)C(=O)[C@H](CC2CCCCC2)N(C)C(=O)[C@@H]2CCCN2C(=O)CN(C)C1=O [Compound 1050] (cyclo([Ac5c][NMeV][d(β3hA)][NMeL]I[Sar]P[NMeCha][Sar][hPhe(3-Cl-4-CF3)]P)),49 nM
14,CCCC[C@@H]1NC(=O)[C@H](Cc2cccc(I)c2)NC(=O)CN(C)C(=O)[C@H](Cc2ccc(Cl)cc2)N(C)C(=O)CN(C)C(=O)CN(C)C(=O)[C@H]([C@@H](C)CC)NC(=O)[C@H](CC(C)C)N(C)C(=O)C[C@@H](C(=O)N2CCCCC2)N(C)C(=O)[C@H](CC(C)C)NC(=O)[C@H](Cc2cccc(C(F)(F)F)c2)N(C)C1=O [Compound 1052] ([NMeL]I[Sar][Sar][NMePhe(4-Cl)][Sar][Phe(3-I)][Nle][NMePhe(3-CF3)]L[NMeD]-Piperidide; lactam N-11),110 nM
15,CC[C@H](C)[C@@H]1NC(=O)[C@H](CC(C)C)N(C)C(=O)C[C@@H](C(=O)N2CCCCC2)N(C)C(=O)[C@H](C2CCCCC2)N(C)C(=O)C2(CCCC2)NC(=O)[C@@H]2C[C@H](c3ccccc3)CN2C(=O)[C@H](CCc2ccc(C(F)(F)F)c(Cl)c2)NC(=O)CN(C)C(=O)[C@H](CC2CCCCC2)N(C)C(=O)[C@@H]2CCN2C(=O)[C@H](C)N(C)C1=O [Compound 1053] ([NMeL]I[NMeA][Aze][NMeCha][Sar][hPhe(3-Cl-4-CF3)][Pro(cis-4-Ph)][Ac5c][NMeChg][NMeD]-Piperidide; lactam N-11),6.7 nM
16,CCCC[C@@H]1NC(=O)[C@H](Cc2cccc(I)c2)NC(=O)CN(C)C(=O)[C@H](Cc2ccc(OC)cc2)N(C)C(=O)[C@@H]2CCN2C(=O)CN(C)C(=O)[C@H]([C@@H](C)CC)NC(=O)[C@H](CC(C)C)N(C)C(=O)C[C@@H](C(=O)N2CCCCC2)N(C)C(=O)[C@H](CC(C)C)NC(=O)[C@](C)(Cc2ccccc2)N(C)C1=O [Compound 1058] ([NMeL]I[Sar][Aze][NMeY](Me)[Sar][Phe(3-I)][Nle][X35]L[NMeD]-Piperidide; lactam N-11),14 nM
17,"CC[C@H](C)[C@@H]1NC(=O)[C@H](CC(C)C)N(C)C(=O)C[C@@H](C(=O)N2CCCCC2)N(C)C(=O)[C@H](CC(C)C)N(C)C(=O)C2(CCCC2)NC(=O)[C@@H]2CCCN2C(=O)[C@H](CCc2ccc(C(F)(F)F)c(F)c2)NC(=O)CN(C)C(=O)[C@H](Cc2ccc(Cl)cc2)N(C)C(=O)CN(C)C(=O)CN(C)C1=O [Compound 1061] ([NMeL]I[Sar][Sar][NMePhe(4-Cl)][Sar][hPhe(3-F,4-CF3)]P[Ac5c][NMeL][NMeD]-Piperidide; lactam N-11)",14 nM
18,CC[C@H](C)[C@@H]1NC(=O)[C@H](CC(C)C)N(C)C(=O)C[C@@H](C(=O)N(C)C)N(C)C(=O)[C@H](C2CCCC2)N(C)C(=O)C2(CCCC2)NC(=O)[C@H](Cc2ccc(Cl)cc2)N(C)C(=O)[C@H](CCc2ccc(C(F)(F)F)c(Cl)c2)NC(=O)CN(C)C(=O)[C@H](CC2CCCCC2)N(C)C(=O)[C@@H]2CCN2C(=O)[C@H](C)N(C)C1=O [Compound 1063] ([NMeL]I[NMeA][Aze][NMeCha][Sar][hPhe(3-Cl-4-CF3)][NMePhe(4-Cl)][Ac5c][NMeGly(cPent)][NMeD]-NMe2; lactam N-11),43 nM
